# According to PubChem BioAssay AID1963850 (Molecular Pharmacology Branch, DTP, NCI, 2024):
# Tested on: 192522-019-R-J2-PDC complex tumor spheroid viability
# Test: Anticancer human tumor 192522-019-R-J2-PDC patient-derived colon adenocarcinoma cell line growth inhibition [POLQ]
# Conditions: for IC50: curve of first compound; for viability, T/C: stronger effect = lower value
# Outline: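 Growth inhibition in 3D: complex spheroids (tumor PDC, HUVEC, MSC) treated with POLQ inhibitor combinations; where Cmax unknown, highest tested concentration 10 microM, except SN-38 at 1 microM.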
# [1] = second compound 0.0316 µM, first compound 0.00316 µM
# [2] = second compound 0.0316 µM, first compound 0.01 µM
# [3] = second compound 0.0316 µM, first compound 0.0316 µM
# [4] = second compound 0.0316 µM, first compound 0.1 µM
# [5] = second compound 0.0316 µM, first compound 0.316 µM
# [6] = second compound 0.0316 µM, first compound 1 µM
# [7] = second compound 0.1 µM, first compound 0.00316 µM
# [8] = second compound 0.1 µM, first compound 0.01 µM
# [9] = second compound 0.1 µM, first compound 0.0316 µM
# [10] = second compound 0.1 µM, first compound 0.1 µM
# [11] = second compound 0.1 µM, first compound 0.316 µM
# [12] = second compound 0.1 µM, first compound 1 µM
# [13] = second compound 0.316 µM, first compound 0.00316 µM
# [14] = second compound 0.316 µM, first compound 0.01 µM
# [15] = second compound 0.316 µM, first compound 0.0316 µM
# [16] = second compound 0.316 µM, first compound 0.1 µM
# [17] = second compound 0.316 µM, first compound 0.316 µM
# [18] = second compound 0.316 µM, first compound 1 µM
# [19] = second compound 1 µM, first compound 0.00316 µM
# [20] = second compound 1 µM, first compound 0.01 µM
# [21] = second compound 1 µM, first compound 0.0316 µM
# [22] = second compound 1 µM, first compound 0.1 µM
# [23] = second compound 1 µM, first compound 0.316 µM
# [24] = second compound 1 µM, first compound 1 µM
# [25] = second compound 3.16 µM, first compound 0.00316 µM
# [26] = second compound 3.16 µM, first compound 0.01 µM
# [27] = second compound 3.16 µM, first compound 0.0316 µM
# [28] = second compound 3.16 µM, first compound 0.1 µM
# [29] = second compound 3.16 µM, first compound 0.316 µM
# [30] = second compound 3.16 µM, first compound 1 µM
# [31] = second compound 10 µM, first compound 0.00316 µM
# [32] = second compound 10 µM, first compound 0.01 µM
# [33] = second compound 10 µM, first compound 0.0316 µM
# [34] = second compound 10 µM, first compound 0.1 µM
# [35] = second compound 10 µM, first compound 0.316 µM
# [36] = second compound 10 µM, first compound 1 µM
# 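Note: spheroids exposed to drugs for seven days before reading.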
# 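Throughout, for viability, T/C: 100% = DMSO vehicle control viability in luminescence.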
structure (smiles),measurement,setting,value
COc1cccc(OCCCN)c1-c1cc(Nc2cnc(C#N)cn2)n[nH]1 + Cc1cccc(N(C)C(=O)C2C(O)CCN2c2nc(C)cc(C(F)(F)F)c2C#N)c1,IC50,second compound 0.0316 µM,28.3 nM
same,IC50,second compound 0.1 µM,30.1 nM
same,IC50,second compound 0.316 µM,48.4 nM
same,IC50,second compound 1 µM,71.6 nM
same,IC50,second compound 3.16 µM,59.1 nM
same,IC50,second compound 10 µM,54.6 nM
same,"viability, T/C",[1],91.4%
same,"viability, T/C",[2],92.1%
same,"viability, T/C",[3],45.4%
same,"viability, T/C",[4],41%
same,"viability, T/C",[5],39.8%
same,"viability, T/C",[6],38%
same,"viability, T/C",[7],107%
same,"viability, T/C",[8],83.4%
same,"viability, T/C",[9],49.5%
same,"viability, T/C",[10],35.5%
same,"viability, T/C",[11],41.1%
same,"viability, T/C",[12],39%
same,"viability, T/C",[13],100%
same,"viability, T/C",[14],86.2%
same,"viability, T/C",[15],54%
same,"viability, T/C",[16],44%
same,"viability, T/C",[17],38.1%
same,"viability, T/C",[18],43.4%
same,"viability, T/C",[19],115%
same,"viability, T/C",[20],97.4%
same,"viability, T/C",[21],62%
same,"viability, T/C",[22],44.9%
same,"viability, T/C",[23],45.3%
same,"viability, T/C",[24],36.8%
same,"viability, T/C",[25],108%
same,"viability, T/C",[26],99.2%
same,"viability, T/C",[27],58.8%
same,"viability, T/C",[28],41.5%
same,"viability, T/C",[29],44.1%
same,"viability, T/C",[30],39.9%
same,"viability, T/C",[31],105%
same,"viability, T/C",[32],89.4%
same,"viability, T/C",[33],53%
same,"viability, T/C",[34],47.2%
same,"viability, T/C",[35],48%
same,"viability, T/C",[36],43.6%
O=C(c1cc(Cc2n[nH]c(=O)c3ccccc23)ccc1F)N1CCN(C(=O)C2CC2)CC1 + Cc1cccc(N(C)C(=O)C2C(O)CCN2c2nc(C)cc(C(F)(F)F)c2C#N)c1,IC50,second compound 0.0316 µM,> 10000 nM
same,IC50,second compound 0.1 µM,> 10000 nM
same,IC50,second compound 0.316 µM,> 10000 nM
same,IC50,second compound 1 µM,> 10000 nM
same,IC50,second compound 3.16 µM,> 10000 nM
same,IC50,second compound 10 µM,> 10000 nM
same,"viability, T/C",[3],101%
same,"viability, T/C",[4],82.3%
same,"viability, T/C",[5],98%
same,"viability, T/C",[6],88.1%
same,"viability, T/C","second compound 0.0316 µM, first compound 3.16 µM",98.5%
same,"viability, T/C","second compound 0.0316 µM, first compound 10 µM",92.6%
same,"viability, T/C",[9],107%
same,"viability, T/C",[10],92.8%
same,"viability, T/C",[11],107%
same,"viability, T/C",[12],95.9%
same,"viability, T/C","second compound 0.1 µM, first compound 3.16 µM",100%
same,"viability, T/C","second compound 0.1 µM, first compound 10 µM",101%
same,"viability, T/C",[15],97.8%
same,"viability, T/C",[16],94.9%
same,"viability, T/C",[17],101%
same,"viability, T/C",[18],96.1%
same,"viability, T/C","second compound 0.316 µM, first compound 3.16 µM",106%
same,"viability, T/C","second compound 0.316 µM, first compound 10 µM",93.2%
same,"viability, T/C",[21],96.1%
same,"viability, T/C",[22],106%
same,"viability, T/C",[23],104%
same,"viability, T/C",[24],96.9%
same,"viability, T/C","second compound 1 µM, first compound 3.16 µM",111%
same,"viability, T/C","second compound 1 µM, first compound 10 µM",106%
same,"viability, T/C",[27],102%
same,"viability, T/C",[28],111%
same,"viability, T/C",[29],107%
same,"viability, T/C",[30],91.3%
same,"viability, T/C","second compound 3.16 µM, first compound 3.16 µM",103%
same,"viability, T/C","second compound 3.16 µM, first compound 10 µM",111%
same,"viability, T/C",[33],99.9%
same,"viability, T/C",[34],98.5%
same,"viability, T/C",[35],103%
same,"viability, T/C",[36],93.7%
same,"viability, T/C","second compound 10 µM, first compound 3.16 µM",116%
same,"viability, T/C","second compound 10 µM, first compound 10 µM",109%
CC[C@@]1(O)C(=O)OCc2c1cc1n(c2=O)Cc2cc3c(CN(C)C)c(O)ccc3nc2-1 + Cc1cccc(N(C)C(=O)C2C(O)CCN2c2nc(C)cc(C(F)(F)F)c2C#N)c1,IC50,second compound 0.0316 µM,> 100 nM
same,IC50,second compound 0.1 µM,> 100 nM
same,IC50,second compound 0.316 µM,> 100 nM
same,IC50,second compound 1 µM,> 100 nM
same,IC50,second compound 3.16 µM,> 100 nM
same,IC50,second compound 10 µM,> 100 nM
same,"viability, T/C","second compound 0.0316 µM, first compound 0.000316 µM",116%
same,"viability, T/C","second compound 0.0316 µM, first compound 0.001 µM",93.7%
same,"viability, T/C",[1],103%
same,"viability, T/C",[2],99.2%
same,"viability, T/C",[3],98.7%
same,"viability, T/C",[4],62.4%
same,"viability, T/C","second compound 0.1 µM, first compound 0.000316 µM",106%
same,"viability, T/C","second compound 0.1 µM, first compound 0.001 µM",98.4%
same,"viability, T/C",[7],102%
same,"viability, T/C",[8],94.5%
same,"viability, T/C",[9],88%
same,"viability, T/C",[10],64.5%
same,"viability, T/C","second compound 0.316 µM, first compound 0.000316 µM",102%
same,"viability, T/C","second compound 0.316 µM, first compound 0.001 µM",106%
same,"viability, T/C",[13],104%
same,"viability, T/C",[14],102%
same,"viability, T/C",[15],93.8%
same,"viability, T/C",[16],70%
same,"viability, T/C","second compound 1 µM, first compound 0.000316 µM",106%
same,"viability, T/C","second compound 1 µM, first compound 0.001 µM",106%
same,"viability, T/C",[19],111%
same,"viability, T/C",[20],102%
same,"viability, T/C",[21],96.2%
same,"viability, T/C",[22],75.2%
same,"viability, T/C","second compound 3.16 µM, first compound 0.000316 µM",99.2%
same,"viability, T/C","second compound 3.16 µM, first compound 0.001 µM",114%
same,"viability, T/C",[25],115%
same,"viability, T/C",[26],98.4%
same,"viability, T/C",[27],102%
same,"viability, T/C",[28],79.5%
same,"viability, T/C","second compound 10 µM, first compound 0.000316 µM",110%
same,"viability, T/C","second compound 10 µM, first compound 0.001 µM",107%
same,"viability, T/C",[31],120%
same,"viability, T/C",[32],102%
same,"viability, T/C",[33],95.3%
same,"viability, T/C",[34],75%
